Measurements: ChEMBL document CHEMBL1149774, “Synthesis of N-(5,7-diamino-3-phenyl-quinoxalin-2-yl)-3,4,5-substituted anilines and N-[4[(5,7-diamino-3-phenylquinoxalin-2-yl)amino]benzoyl]-l-glutamic acid diethyl ester: evaluation of in vitro anti-cancer and anti-folate activities” (Eur J Med Chem, 2008)
Activity calls are given as the source filed them. No cut-off for these calls is given here.

Assays:
A498 = test: Growth inhibition of human A498 cells after 48 hrs by SRB staining method; format: functional; conditions: A498, 48 h
MDA-MB-231 = test: Growth inhibition of human MDA-MB-231 cells after 48 hrs by SRB staining method; format: functional; conditions: MDA-MB-231, 48 h
IGROV-1 = test: Growth inhibition of human IGROV1 cells after 48 hrs by SRB staining method; format: functional; conditions: IGROV-1, 48 h
[1] = target: T1, Dihydrofolate reductase (Homo sapiens) (UniProt P00374); test: Inhibition of human dihydrofolate reductase at 10 uM
T1 sequence (whole entry): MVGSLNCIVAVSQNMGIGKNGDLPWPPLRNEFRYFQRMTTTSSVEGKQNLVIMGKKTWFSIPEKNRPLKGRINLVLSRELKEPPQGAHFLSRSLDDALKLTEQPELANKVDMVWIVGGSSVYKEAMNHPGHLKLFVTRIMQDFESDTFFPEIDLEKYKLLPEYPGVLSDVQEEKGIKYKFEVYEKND

SNB-19 = test: Growth inhibition of human SNB19 cells after 48 hrs by SRB staining method; format: functional; conditions: SNB-19, 48 h
Thymidylate synthase = target: T2, Thymidylate synthase (Lactobacillus casei, UniProt P00469)
T2 sequence (P00469 whole entry): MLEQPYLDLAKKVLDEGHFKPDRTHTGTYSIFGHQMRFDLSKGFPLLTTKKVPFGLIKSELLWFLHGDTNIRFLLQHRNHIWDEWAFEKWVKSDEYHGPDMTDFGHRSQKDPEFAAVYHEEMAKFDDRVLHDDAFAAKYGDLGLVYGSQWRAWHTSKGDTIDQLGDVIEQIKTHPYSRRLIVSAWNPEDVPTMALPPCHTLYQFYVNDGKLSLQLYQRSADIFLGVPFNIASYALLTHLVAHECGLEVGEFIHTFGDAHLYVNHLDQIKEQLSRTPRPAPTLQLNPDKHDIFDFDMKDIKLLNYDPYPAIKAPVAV
Description: Inhibition of Lactobacillus casei thymidylate synthase

RPMI-8226 = test: Growth inhibition of human RPMI8226 cells after 48 hrs by SRB staining method; format: functional; conditions: RPMI-8226, 48 h
SK-MEL-2 = test: Growth inhibition of human SK-MEL-2 cells after 48 hrs by SRB staining method; format: functional; conditions: SK-MEL-2, 48 h
ACHN = test: Growth inhibition of human ACHN cells after 48 hrs by SRB staining method; format: functional
BT-549 = test: Growth inhibition of human BT549 cells after 48 hrs by SRB staining method; format: functional; conditions: BT-549, 48 h
SW-620 = test: Growth inhibition of human SW620 cells after 48 hrs by SRB staining method; format: functional; conditions: SW-620, 48 h
UO-31 = test: Growth inhibition of human UO31 cells after 48 hrs by SRB staining method; format: functional; conditions: UO-31, 48 h
K562 = test: Growth inhibition of human K562 cells after 48 hrs by SRB staining method; format: functional; conditions: K562, 48 h
[2] = Growth inhibition of human HS 578T cells after 48 hrs by SRB staining method; format: functional
PC-3 = test: Growth inhibition of human PC3 cells after 48 hrs by SRB staining method; format: functional; conditions: PC-3, 48 h
SNB-75 = test: Growth inhibition of human SNB75 cells after 48 hrs by SRB staining method; format: functional; conditions: SNB-75, 48 h
A549 = test: Growth inhibition of human A549 cells after 48 hrs by SRB staining method; format: functional; conditions: A549, 48 h
HOP-92 = test: Growth inhibition of human HOP92 cells after 48 hrs by SRB staining method; format: functional; conditions: HOP-92, 48 h
HT-29 = test: Growth inhibition of human HT29 cells after 48 hrs by SRB staining method; format: functional; conditions: HT-29, 48 h
MOLT-4 = test: Growth inhibition of human MOLT4 cells after 48 hrs by SRB staining method; format: functional; conditions: MOLT-4, 48 h
CAKI-1 = test: Growth inhibition of human CAKI1 cells after 48 hrs by SRB staining method; format: functional; conditions: CAKI-1, 48 h
SK-MEL-28 = test: Growth inhibition of human SK-MEL-28 cells after 48 hrs by SRB staining method; format: functional; conditions: SK-MEL-28, 48 h
COLO 205 = test: Growth inhibition of human COLO205 cells after 48 hrs by SRB staining method; format: functional; conditions: COLO 205, 48 h
[3] = read-out: pLC50 (the source's name) (converted)

Structure (SMILES): Nc1cc(N)c2nc(-c3ccccc3)c(Nc3ccc(F)cc3)nc2c1
- GI50 (A498): 17.4 µM
- CC50 (A498; [3]): 66.1 µM
- TGI (A498; read-out: pTGI (converted)): 20 µM
- GI50 (MDA-MB-231): 11 µM
- CC50 (MDA-MB-231; [3]): 85.1 µM
- TGI (MDA-MB-231; read-out: pTGI (converted)): 30.2 µM
- GI50 (IGROV-1): 16.6 µM
- TGI (IGROV-1; read-out: pTGI (converted)): > 100 µM
- Activity [1]: inactive
- GI50 (SNB-19): 21.9 µM
- TGI (SNB-19; read-out: pTGI (converted)): 39.8 µM
- Ki (Thymidylate synthase): 3 µM
- GI50 (RPMI-8226): 4.68 µM
- CC50 (RPMI-8226; [3]): > 100 µM
- TGI (RPMI-8226; read-out: pTGI (converted)): 34.7 µM
- GI50 (SK-MEL-2): 29.5 µM
- TGI (SK-MEL-2; read-out: pTGI (converted)): > 100 µM
- GI50 (ACHN): 10.2 µM
- CC50 (ACHN; [3]): 49 µM
- TGI (ACHN; read-out: pTGI (converted)): 22.4 µM
- GI50 (BT-549): 12 µM
- CC50 (BT-549; [3]): 63.1 µM
- TGI (BT-549; read-out: pTGI (converted)): 26.9 µM
- GI50 (SW-620): 13.5 µM
- CC50 (SW-620; [3]): > 100 µM
- TGI (SW-620; read-out: pTGI (converted)): 38.9 µM
- GI50 (UO-31): 17 µM
- CC50 (UO-31; [3]): > 100 µM
- TGI (UO-31; read-out: pTGI (converted)): 61.7 µM
- GI50 (K562): 5.01 µM
- CC50 (K562; [3]): > 100 µM
- TGI (K562; read-out: pTGI (converted)): > 100 µM
- GI50 [2]: 19.1 µM
- CC50 [2, 3]: > 100 µM
- TGI ([2]; read-out: pTGI (converted)): 58.9 µM
- GI50 (PC-3): 11.7 µM
- CC50 (PC-3; [3]): > 100 µM
- TGI (PC-3; read-out: pTGI (converted)): > 100 µM
- GI50 (SNB-75): 20.9 µM
- TGI (SNB-75; read-out: pTGI (converted)): 41.7 µM
- GI50 (A549): 17.4 µM
- CC50 (A549; [3]): > 100 µM
- TGI (A549; read-out: pTGI (converted)): 44.7 µM
- GI50 (HOP-92): 13.2 µM
- TGI (HOP-92; read-out: pTGI (converted)): 43.7 µM
- GI50 (HT-29): 18.6 µM
- TGI (HT-29; read-out: pTGI (converted)): 35.5 µM
- GI50 (MOLT-4): > 100 µM
- CC50 (MOLT-4; [3]): > 100 µM
- TGI (MOLT-4; read-out: pTGI (converted)): > 100 µM
- GI50 (CAKI-1): 19.1 µM
- CC50 (CAKI-1; [3]): 85.1 µM
- TGI (CAKI-1; read-out: pTGI (converted)): 40.7 µM
- GI50 (SK-MEL-28): 20.4 µM
- CC50 (SK-MEL-28; [3]): 75.9 µM
- TGI (SK-MEL-28; read-out: pTGI (converted)): 38.9 µM
- GI50 (COLO 205): 20.4 µM
- TGI (COLO 205; read-out: pTGI (converted)): 56.2 µM
